Like-named read-outs stand apart in the source and are kept apart here.
Legend:
[1] = tested on: FLOD-G derived from Gibberella fujikuroi; assay: Effect of various inhibitors on the activity of FLOD-G; stabilization; type: biochemical
Experimental: The inhibitory effect of various substances was tested in a manner substantially analogous to that described in (1) above. The stabilization effect was examined by dialyzing overnight against 50 mM Tris-HCl buffer (pH 8.5) containing 2 mM DTT and measuring the activity.

[2] = tested on: FLOD-G derived from Gibberella fujikuroi (IFO No. 6605); assay: Effect of metal ion on the activity of FLOD-G; type: biochemical
Experimental: Then, the enzyme activity was evaluated.

[3] = tested on: FLOD-S derived from S-1F4 strain; assay: Effect of metal ion on the activity of FLOD-S; type: biochemical, Fusarium oxysporum S-1F4
Experimental: After 5 minutes of incubation at 30° C., the enzyme activity was evaluated.

[4] = tested on: FLOD-S derived from S-1F4 strain; assay: Effect of various inhibitors on activity of FLOD-S; stabilization; type: biochemical, Fusarium oxysporum S-1F4
Experimental: In the present test, the final concentration of PCMB (parachloro mercuric benzoate) is 0.1 mM while that of others 1 mM. The stabilization effect was examined by dialyzing the mixture overnight against 50 mM Tris-HCl buffer (pH 8.5) containing 2 mM dithiothreitol (DTT) and measuring the enzyme activity.

[5] = tested on: FLOD-S derived from S-1F4 strain; assay: Substrate specificity of FLOD-S (hydrogen peroxide generation)
Experimental: The partially purified enzyme was prepared in the following manner. Thus, S-1F4 strain was grown in a GL brown-colored medium for 24 hours and the culture was filtered with suction to harvest mycelia. The mycelia were then washed, suspended in 0.1 M Tris-HCl buffer (pH 8.5), ground by means of Dino-Mill and centrifuged. The centrifugal supernatant is fractionated with ammonium sulfate and purified using DEAE-Sephacel ion-exchange chromatography to obtain the partially purified enzyme. The purified enzyme was prepared according to the method described in Example 1 below.
A 50 mM FZL solution was prepared by dissolving FZL previously obtained in distilled water. To a mixture of 100 μl of 45 mM 4-aminoantipyrine, 100 μl of peroxidase (60 U/ml), 100 μl of 60 mM phenol, 1 ml of 0.1 M Tris-HCl buffer (pH 8.0) and 50 μl of enzyme solution was added distilled water to give a total volume of 2.9 ml and the solution was allowed to equilibrate at 30° C. After the addition of 100 μl of 50 mM FZl solution, the time-course of absorbance at 505 nm was measured. The amount (μmol) of hydrogen peroxide produced in one minute was calculated on the basis of a molar absorption coefficient (5.16×10^3 M^-1 cm^-1) of a quinone pigment produced. The resultant numerical value was taken as a unit(U) of enzyme activity.

[6] = tested on: FLOD-G derived from Gibberella fujikuroi; assay: Substrate specificity of FLOD-G
Experimental: To a mixture of 100 μl of 45 mM 4-aminoantipyrine, 100 μl of peroxidase solution (60 U/ml), 100 μl of 60 mM phenol, 1 ml of 0.1 M Tris-HCl buffer (pH 8.0) and 50 μl of enzyme solution, was added distilled water to give a total volume of 2.95 ml and the solution was allowed to be equilibrated at 30° C. After the addition of 50 μl of 100 mM FZL solution, the time-course of absorbance at 505 nm was measured. The amount (μmol) of hydrogen peroxide produced in one minute was calculated on the basis of a molar absorption coefficient (5.16×10^3 M^-1 cm^-1) of a quinone pigment produced. The resultant numerical value was taken as a unit (U) of enzyme activity.

[7] = metal 1 mM, 0.1 M Tris-HCl pH 8.0, pre-incubated 5 minutes at 30° C., None = 100
[8] = metal 1 mM, 0.1 M Tris-HCl pH 8.0, 5 minutes at 30° C., None = 100
[9] = inhibitor (mM), concentration not given, None = 100
[10] = partially purified FLOD-S, substrate 0.018%

| Compound | Specific activity (%) [2, 7] [%] | Specific activity (%) [3, 8] [%] | Specific activity (%) ([4]; reagent 1 mM, None = 100) | Specific activity (%) [1, 9] [%] | also measured |
| --- | --- | --- | --- | --- | --- |
| O=C(O)CN(CCN(CC(=O)O)CC(=O)O)CC(=O)O [EDTA] |  |  |  |  | Specific activity (%) [1]: 81% |
| [Cl][Mn][Cl] [MnCl2] | 115 | 154 |  |  |  |
| O=C(O)c1cc[c]([Hg][Cl])cc1 [PCMB, parachloro mercuric benzoate] |  |  |  |  | Inhibition of FLOD-S activity by inhibitor ([4]; PCMB 0.1 mM, others 1 mM): completely inhibited; Specific activity (%) ([4]; reagent 0.1 mM, None = 100): 0%; Inhibition of FLOD-G activity by inhibitor [1]: strongly inhibited; Specific activity (%) ([1]; inhibitor 0.1 mM, None = 100): 51% |
| C#CCN(C)CCCOc1ccc(Cl)cc1Cl [Clorgyline] |  |  | 132 |  |  |
| NN [Hydrazine] |  |  | 13 | 14 | Inhibition of FLOD-S activity by inhibitor [4]: inhibited; Inhibition of FLOD-G activity by inhibitor [1]: strongly inhibited |
| c1cnc2c(c1)ccc1cccnc12 [O-Phenanthrolene] |  |  | 103 | 78 |  |
| O=C(O)c1cc(SSc2ccc([N+](=O)[O-])c(C(=O)O)c2)ccc1[N+](=O)[O-] [5,5',-Dithiobis(2-nitrobenzoic acid)] |  |  | 95 | 76 |  |
| [Cl-].[Cs+] [CsCl2] | 97 | 102 |  |  |  |
| c1ccc(-c2ccccn2)nc1 [α,α'-Dipyridyl] |  |  | 106 | 78 |  |
| O=[N+]([O-])[O-].[Ag+] [AgNO3] | 0 | 0 |  |  | Inhibition of FLOD-G activity by metal ion ([2]; metal 1 mM): completely inhibited; Inhibition of FLOD-S activity by metal ion ([3]; metal 1 mM): completely inhibited |
| [Cl-].[K+] [KCl] | 98 | 104 |  |  |  |
| [Cl-].[Li+] [LiCl] | 96 | 100 |  |  |  |
| [Cl][Cu][Cl] [CuCl2] | 2 | 0 |  |  | Inhibition of FLOD-G activity by metal ion ([2]; metal 1 mM): inhibited; Inhibition of FLOD-S activity by metal ion ([3]; metal 1 mM): completely inhibited |
| NNC(N)=O [Semicarbazide] |  |  | 103 | 77 |  |
| NNc1ccccc1 [Phenylhydrazine] |  |  | 2.6 | 13 | Inhibition of FLOD-S activity by inhibitor [4]: inhibited; Inhibition of FLOD-G activity by inhibitor [1]: strongly inhibited |
| N=C(N)NN [Aminoguanidine] |  |  | 66 | 50 | Inhibition of FLOD-G activity by inhibitor [1]: strongly inhibited |
| [Cl-].[Na+] [NaCl] |  |  |  |  | Specific activity (%) ([2]; pH 8): 97%; Specific activity (%) ([3]; pH 8): 107% |

| Compound | Specific activity (%) [2, 7] [%] | Specific activity (%) [3, 8] [%] | Specific activity (%) ([4]; reagent 1 mM, None = 100) | Specific activity (%) [1, 9] [%] | also measured |
| --- | --- | --- | --- | --- | --- |
| [Ca+2].[Cl-].[Cl-] [CaCl2] | 97 | 77 |  |  |  |
| [Cl-].[Rb+] [RbCl] | 97 | 103 |  |  |  |
| O=S(=O)([O-])[O-].[Fe+2] [FeSO4] | 74 | 97 |  |  |  |
| O[C@H](CS)[C@H](O)CS (racemic) [dithiothreitol] |  |  |  |  | Stabilization of FLOD-S ([4]; pH 8.5): stabilized; Stabilization of FLOD-G ([1]; dialysis overnight against 50 mM Tris-HCl buffer (pH 8.5) containing 2 mM DTT): stabilized |
| [Ba+2].[Cl-].[Cl-] [BaCl2] | 103 | 60 |  |  |  |
| O=C(N[C@@H](CCCCNCC(=O)[C@@H](O)[C@H](O)[C@H](O)CO)C(=O)O)OCc1ccccc1 [Fructosyl N^α -Z-lysine, fructosyl N^α -Z-lysine] |  |  |  |  | Specificity of FLOD-S to substrate [5]: remarkably specific |
| O=S(=O)([O-])[O-].[Co+2] [CoSO4] | 15 | 42 |  |  | Inhibition of FLOD-G activity by metal ion ([2]; metal 1 mM): inhibited |
| O=S(=O)([O-])[O-].[Zn+2] [ZnSO4] | 33 | 0 |  |  | Inhibition of FLOD-G activity by metal ion ([2]; metal 1 mM): inhibited; Inhibition of FLOD-S activity by metal ion ([3]; metal 1 mM): completely inhibited |
| [Cl-].[Cl-].[Mg+2] [MgCl2] | 94 | 75 |  |  |  |
| Fructosyl poly-L-lysine |  |  |  |  | Specificity of FLOD-S to substrate [5]: specific; Activity [5, 10]: 0.0738 U/ml; Specific activity (%) [5, 10]: 2.3%; Specific activity (%) ([5]; purified FLOD-S, substrate 0.02%): 2.3%; Activity of FLOD-G on substrate [6]: active; Specific activity (%) ([6]; FLOD-G, substrate 0.017%): 1.0% |
| [Cl][Hg][Cl] [HgCl2] | 25 | 0 |  |  | Inhibition of FLOD-G activity by metal ion ([2]; metal 1 mM): inhibited; Inhibition of FLOD-S activity by metal ion ([3]; metal 1 mM): completely inhibited |
| [N-]=[N+]=[N-] [Sodium azide] |  |  | 101 | 78 |  |
| [Cl][Fe]([Cl])[Cl] [FeCl3] | 16 | 67 |  |  | Inhibition of FLOD-G activity by metal ion ([2]; metal 1 mM): inhibited |
| C#CCN(C)C(C)Cc1ccccc1 (stereo not shown) [Deprenyl] |  |  | 102 | 81 |  |
| NO [Hydroxylamine] |  |  | 21 | 16 | Inhibition of FLOD-G activity by inhibitor [1]: strongly inhibited |
| O=C(O)CI [Iodoacetic acid] |  |  |  |  | Specific activity (%) [4]: 102%; Specific activity (%) [1]: 77% |

Source: patent publication US5972671A, “Fructosyl amino acid oxidase and process for producing the same” (Kyoto Daiichi Kagaku Co., Ltd., priority 1994, dated 1999)
